Values joined by “and” are separate entries in the source; they are usually repeats but may differ in a detail not shown here. Equal values may be shown once.
Assays:
Assay type in all cases: cell-based, Dehalococcoides and Dehalobacter spp.
[1] = test system: dechlorinating bacteria known to convert PCE to ethene; assay: Set F: Additional Novel Bioremediation Amendments, PCE dechlorination microcosms; conditions: 44 days, nominally 1,000 mg/L
Experimental: (§1) The following components were used in the system for bioremediating contaminated ground water microcosms in Examples 2-8: • 160 milliliter (ml) stoppered serum bottles • 100 ml of anaerobic culture medium, groundwater containing an excess of bioavailable phosphorus and nitrogen at 0.5 mM Phosphate and 1 mM ammonium degassed with a nitrogen sparge • Nominally 1 gram of limestone • 19.54 micromoles (pmoles) Perchloroethene (PCE) • An excess of various electron donors were utilized • 3 ml of inoculum containing dechlorinating bacteria known to convert PCE to ethene.
Set F included microcosms that contained Sodium Gluconate and Sodium Erythorbate. They started at concentrations that were nominally 1,000 mg/L as compared with the sodium lactate control at 7 mM (784 mg/L).
The objective of this set was to characterize the ability of these two novel bioremediation electron donors to completely dechlorinate PCE and characterize the electron donor utilization efficiency as compared with sodium lactate.

[2] = test system: dechlorinating bacteria known to convert PCE to ethene; assay: Set E: Relative Efficiency of Novel Bioremediation Amendments (electron donors), PCE dechlorination microcosms
From the text: (§2) Sets B, C, D, E, and G further contain figures and tables showing results of the characterization of the Efficiency and the Relative Efficiency of electron donor usage. Efficiency may be defined as the percent of electron donor utilized for dechlorination, and may be calculated by dividing the pmoles of Chloride ion generated by the pmoles of electron donor consumed as measured by either Volatile Fatty Acid (VFA) analysis (Sets B, C, and G) or Chemical Oxygen Demand (COD) analysis (Set D and E). The Relative Efficiency of the electron donor utilization may be defined as the Efficiency of the Electron Donor divided by the Efficiency of the Lactate Control.
as §1
The fifth set tested a variety of different electron donors comparing Crude Glycerin, Sodium Citrate, Ethanol and Whey all charged at nominally 1,000 mg/L to lactate at 7 mM (784 mg/L).
The objective of the study was to test bioremediation amendments for efficacy as electron donors as well as to characterize their Efficiency for dechlorination as compared to the Lactate Control.

[3] = test system: dechlorinating bacteria known to convert PCE to ethene; assay: Set G: Additional Yeast Metabolites and Polysaccharides as Nutrients, PCE dechlorination microcosms (kinetics, Relative Rate, paired t-test); conditions: bottles 1-3
From the text: Certain contaminated materials (or sites) may contain indigenous microbial communities that are sufficient for complete bioremediation of contaminants. For such sites, there is no need to add microbes unless the indigenous microbes are genetically deficient in achieving the desired clean-up goals. For those sites that are microbiologically limited, microorganisms may be added to the contaminated materials (or sites). In one embodiment, the inoculum may be a mixed culture of halo-respiring bacteria that have been enriched to reach an optimal cell density. These mixed cultures of halo-respiring bacteria may be typically obtained from sediment samples from rivers, streams or any waterways. More specifically, the inoculum used in the Examples was originated from a Sangamon River sediment sample (Lodge Park, Piatt County, Ill.) See, e.g., Brennan, R. A., Sanford, R. A. and Werth, C. J. (2006). “Biodegradation of Tetrachloroethene by Chitin Fermentation Products in a Continuous Flow Column System.” Journal of Environ. Engr., June 665-673. This culture had grown for several years on PCE, anaerobic basal salts medium, Wolfe's vitamin solution and various electron donors including lactate (1-2 millimolar (mM)), formate (4 mM) and chitin using the Volatile Interface Transfer Apparatus (VITA) reactor system at the University of Illinois. Brennan, R. A., and Sanford, R. A. (2002). “Continuous steady-state method using Tenax for delivering tetrachloroethene to chlororespiring bacteria.” Appl. Environ. Microbiol., 68(3), 1464-1467. […] Using 16S rRNA gene-specific primers, both Dehalococcoides and Dehalobacter spp. were detected. Quantitative real-time PCR has been used to determine that approximately 1.65×10^7 Dehalococcoides gene copies were present per ml of culture.
For purpose of this disclosure, each bottle may be started with a certain amount of PCE. At subsequent times each bottle may be sampled for the degradation daughter products of PCE, namely trichloroethene (TCE), cis-dichloroethene (DCE), vinyl chloride (VC) and ethene, etc. Trans-DCE and 1,1-DCE are also daughter products of PCE, but they may not be detectable under the conditions disclosed here.
The rate of degradation may be determined by calculating the number of pmoles of chloride ions removed from PCE and subsequently from the amounts of the daughter products generated. The calculation may be performed as follows: Chloride (μmoles)=[…]−4×PCE (μmoles)−3×TCE (pmoles)−2×DCE (μmoles)−VC (μmoles)
The alternative chloride calculation is: Chloride (μmoles)=TCE (μmoles)+2×DCE (μmoles)+3×VC (μmoles)+4×Ethene (μmoles)
Next, the dechlorination rate may be determined for each bottle at each time by dividing the Chloride generated by the time (days). The data may be then normalized to the lactate control by taking the ratio of Chloride Rate (pmoles/day) and the Lactate Control Chloride Rate (pmoles/day). This ratio is called Relative Rate and is dimensionless.
As shown in the Examples, a paired t-test has been conducted to calculate the probability that the Relative Rate of one group (i.e. with Nutrient) is greater than the other group (i.e. without Nutrient). The null hypothesis is that the underlying means of the two paired groups are equal. The Probability that one group has higher Relative Rates than the other group is shown in various tables in the Examples.
The following components were used in the system for bioremediating contaminated ground water microcosms in Examples 2-8: • 160 milliliter (ml) stoppered serum bottles • 100 ml of anaerobic culture medium, groundwater containing an excess of bioavailable phosphorus and nitrogen at 0.5 mM Phosphate and 1 mM ammonium degassed with a nitrogen sparge • Nominally 1 gram of limestone • 19.54 micromoles (pmoles) Perchloroethene (PCE) • An excess of various electron donors were utilized • 3 ml of inoculum containing dechlorinating bacteria known to convert PCE to ethene. […]

[4] = test system: dechlorinating bacteria known to convert PCE to ethene; assay: Set G: Efficiency by VFA Analysis
From the text: as §2
The method used to calculate the consumption of the electron donor measured the propionate, acetate and formate levels to calculate the consumption of electron donor over time. The lactate and propionate fermented very rapidly resulting in acetate and formate as the only measurable VFAs.
Set G contained microcosms that tested two different Yeast Metabolites (YM3 and YM4) and a Polysaccharide (PS1) for kinetics and efficiency of electron donor utilization using lactate and molasses as the electron donors. PS1 was also tested as an electron donor by itself.
Lactate at 11.2 mM (1,000 mg/L) and nutrient amendment at 1% of the electron donor levels (˜10 mg/L). Triplicate bottles received 2 micro liters of PCE and 2 ml of inoculum. The bottles were sampled 5 times over a 138 day period.

**Q.** Which “Ethene generation (in words)” value [1] does the source give for `O=C1O[C@H]([C@H](O)CO)C([O-])=C1O.[Na+]` [Na-Erythorbate, Sodium Erythorbate] here?
**A.** starting to generate Ethene

**Q.** `O=C([O-])[C@H](O)[C@@H](O)[C@H](O)[C@H](O)CO.[Na+]` [Na-Gluconate, Sodium Gluconate] was tested. Which “Ethene generation (in words)” value [1] did it give?
**A.** starting to generate Ethene

**Q.** `O=C([O-])CC(O)(CC(=O)[O-])C(=O)[O-].[Na+].[Na+].[Na+]` [Sodium Citrate] was tested. Which “ability to dechlorinate PCE (in words)” value [2] did it give?
**A.** ability to completely dechlorinate PCE

**Q.** What about the “dechlorination speed compared to Lactate Control / other amendments (in words)” value [2] of the same compound?
**A.** almost as fast

**Q.** And the “efficient as the Lactate Control (Relative Efficiency)” value ([2]; electron donor nominally 1,000 mg/L vs lactate 7 mM)?
**A.** 84%

**Q.** inulin [PS1] was tested. Which “Relative Rate” value ([3]; time 35 days) did it give?
**A.** 0.03 and 0.04 and 0.05

**Q.** And the “Relative Rate” value ([3]; time 50 days)?
**A.** 0.02 and 0.01 (2×)

**Q.** What about the “Relative Rate” value ([3]; time 79 days) of the same compound?
**A.** 0.03 and 0.04 and 0.02

**Q.** What about the “Relative Rate” value ([3]; time 138 days) of the same compound?
**A.** 0.00

**Q.** What about the “Estimated % Efficiency” value ([4]; e^- used dechlorination / e^- used donor) of the same compound?
**A.** 0.283%

**Q.** And the “Relative Efficiency” value ([4]; relative to Lactate Control = 100%)?
**A.** 5%

Reference: US10179355B2, “Bioremediation enhancing agents and methods of use” (JRW BIOREMEDIATION, LLC, priority 2007, dated 2019)
